The record followed here is patent US9237747B2, “Herbicidal compositions comprising 4-amino-3-chloro-5-fluoro-6-(4-chloro-2-fluoro-3-methoxyphenyl) pyridine-2-carboxylic acid or a derivative thereof and insecticides” (priority 2013, dated 2016).

The structures appear in SMILES notation. “And” between values parts separate entries of the source, which are not always exact repeats. Equal values may be shown once. Read-outs that look alike come from different tables or passages of the source.

Experiment [1] concerns ECHCG. It is filed as in vivo, Echinochloa crus-galli. In outline:
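Greenhouse postemergence test: mixtures of Compound A (acid equivalent) and insecticidal components sprayed on young plants, with percent visual control read ~3 weeks later.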

Experiment [2] concerns CYPRO. In words: In-water applied weed control, transplanted paddy rice (greenhouse). It is filed as in vivo, Cyperus rotundus. Here is the method: (§1) Weed seeds or nutlets of the desired test plant species were planted in puddled soil (mud) prepared by mixing a shredded, non-sterilized mineral soil (50.5 percent silt, 25.5 percent clay, and 24 percent sand, with a pH of about 7.6 and an organic matter content of about 2.9 percent) and water at a 1:1 volumetric ratio. The prepared mud was dispensed in 365 mL aliquots into 16-ounce (oz.) non-perforated plastic pots with a surface area of 86.59 square centimeters (cm^2) leaving a headspace of 3 centimeters (cm) in each pot. Rice seeds were planted in Sun Gro MetroMix® 306 planting mixture, which typically has a pH of 6.0 to 6.8 and an organic matter content of about 30 percent, in plastic plug trays. Seedlings at the second or third leaf stage of growth were transplanted into 860 mL of mud contained in 32-oz. non-perforated plastic pots with a surface area of 86.59 cm^2 4 days prior to herbicide application. The paddy was created by filling the headspace of the pots with 2.5 to 3 cm of water. When required to ensure good germination and healthy plants, a fungicide treatment and/or other chemical or physical treatment was applied. The plants were grown for 4-22 days in a greenhouse with an approximate 14 h photoperiod which was maintained at about 29° C. during the day and about 26° C. during the night. Nutrients were added as Osmocote® (17:6:10, N:P:K+minor nutrients) at 2 grams (g) per 16-oz. pot and 4 g per 32-oz. pot. Water was added on a regular basis to maintain the paddy flood, and supplemental lighting was provided with overhead metal halide 1000-Watt lamps as necessary. The plants were employed for testing when they reached the first through fourth true leaf stage.
Treatments consisted of the acid or esters of 4-amino-3-chloro-5-fluoro-6-(4-chloro-2-fluoro-3-methoxy-phenyl)pyridine-2-carboxylic acid (compound A) each formulated as an SC (suspension concentrate) and various herbicidal components alone and in combination. Forms of compound A were applied on an acid equivalent basis.
Other […] components were applied on an active ingredient basis and consisted of etofenprox (technical grade material) and sulfoxaflor formulated as Sulfoxaflor WG.
(§2) Treatment requirements for each compound or herbicidal component were calculated based upon the rates being tested, the concentration of active ingredient or acid equivalent in the formulation, an application volume of 2 mL per component per pot, and an application area of 86.59 cm^2 per pot.
For formulated compounds, a measured amount was placed in an individual 100 or 200 mL glass vial and was dissolved in a volume of 1.25% (v/v) AgriDex® crop oil concentrate to obtain application solutions.
For technical grade compounds, a weighed amount was placed in an individual 100 to 200 mL glass vial and was dissolved in a volume of acetone to obtain concentrated stock solutions.
Applications were made by injecting with a pipetter appropriate amounts of the application solutions, individually and sequentially, into the aqueous layer of the paddy. Control plants were treated in the same manner with the solvent blank. Applications were made so that all treated plant material received the same concentrations of acetone and crop oil concentrate.
The treated plants and control plants were placed in a greenhouse as described above and water was added as needed to maintain a paddy flood. After approximately 3 weeks the condition of the test plants as compared with that of the untreated plants was determined visually and scored on a scale of 0 to 100 percent where 0 corresponds to no injury or growth inhibition and 100 corresponds to complete kill.
Colby's equation was used to determine the herbicidal effects expected from the mixtures (Colby, S. R. Calculation of the synergistic and antagonistic response of herbicide combinations. Weeds 1967, 15, 20-22.). […]

Experiment [3] has as its system LEFCH. The description is as above. It is filed as in vivo, Leptochloa chinensis. Here is the method: as §1, with “stage. […]” for “stage.”
as §2
For formulated compounds, a measured amount was placed in an individual 100 or 200 mL glass vial and was dissolved in a volume of 1.25% (v/v) AgriDex® crop oil concentrate to obtain application solutions. […]
The treated plants and control plants were placed in a greenhouse as described above and water was added as needed to maintain a paddy flood. After approximately 3 weeks the condition of the test plants as compared with that of the untreated plants was determined visually and scored on a scale of 0 to 100 percent where 0 corresponds to no injury or growth inhibition and 100 corresponds to complete kill. […]

Consider `COc1c(Cl)ccc(-c2nc(C(=O)O)c(Cl)c(N)c2F)c1F` [Compound A Acid, 4-amino-3-chloro-6-(4-chloro-2-fluoro-3-methoxyphenyl)-5-fluoropyridine-2-carboxylic acid], for which the “Visual Weed Control (%) - 20 DAA ECHCG Obs” value in experiment [1] (4.38 g ae/ha alone) was 60%; in experiment [1] (5.3 g ae/ha alone), 65%; in experiment [1] (8.75 g ae/ha alone), 80%; in experiment [1] (10.6 g ae/ha alone) it was 90%; in experiment [1] (17.5 g ae/ha alone), 95%; in experiment [1] (21.2 g ae/ha alone) it was 95%. The “Visual Weed Control (%) - 21 DAA ECHCG Obs” value in experiment [1] (5.3 g ae/ha alone) is 65%; in experiment [1] (10.6 g ae/ha alone), 85%; in experiment [1] (21.2 g ae/ha alone) it was 95%.

`COc1c(Cl)ccc(-c2nc(C(=O)OCc3ccccc3)c(Cl)c(N)c2F)c1F` [Compound A Benzyl Ester]: the “Visual Weed Control (%) - 20 DAA ECHCG Obs” value in experiment [1] (4.38 g ae/ha alone) was 60% and 70%; in experiment [1] (8 g ae/ha alone), 70%; in experiment [1] (8.75 g ae/ha alone) it was 85% and 80%; in experiment [1] (17.5 g ae/ha alone) it was 90% and 95%. The figures for the “Visual Weed Control (%) - 19 DAA ECHCG Obs” value in experiment [1] (8 g ae/ha alone), in experiment [1] (16 g ae/ha alone) and in experiment [1] (32 g ae/ha alone) were 85%, 85% and 95%, respectively. Also, the “Visual Weed Control (%) - 22 DAA ECHCG Obs” value in experiment [1] (8 g ae/ha alone) was 50%; in experiment [1] (16 g ae/ha alone), 60%; in experiment [1] (22 DAA, 8 g ae/ha alone), 45% and 50%; in experiment [1] (22 DAA, 16 g ae/ha alone), 60%; in experiment [1] (22 DAA, 32 g ae/ha alone) it was 90% and 95%. Further, the “Visual Weed Control (%) - 21 DAA ECHCG Obs” value in experiment [1] (4.38 g ae/ha alone) is given as 70%; in experiment [1] (8.75 g ae/ha alone), 85%; in experiment [1] (17.5 g ae/ha alone) it was 90%. For the same molecule, the “Visual Weed Control (%) - 19 DAA CYPRO Obs” value in experiment [2] (8 g ae/ha alone) was determined as 20%; in experiment [2] (16 g ae/ha alone), 88%; in experiment [2] (32 g ae/ha alone) it was 87%. Further, the “Visual Weed Control (%) - 21 DAA CYPRO Obs” value in experiment [2] (21 DAA, 8 g ae/ha alone) is 40%. The “Visual Weed Control (%) - 19 DAA LEFCH Obs” value in experiment [3] (8 g ae/ha alone) is reported as 3%; in experiment [3] (16 g ae/ha alone) it was 8%; in experiment [3] (32 g ae/ha alone), 10%.

On to `CC(c1ccc(C(F)(F)F)nc1)S(C)(=O)=NC#N` (centres unmarked) [Sulfoxaflor, N-[methyloxido[1-[6-(trifluoromethyl)-3-pyridinyl]ethyl]-λ^4-sulfanylidene]cyanamide], for which the “Visual Weed Control (%) - 19 DAA CYPRO Obs” value in experiment [2] (37.5 g ai/ha alone), in experiment [2] (75 g ai/ha alone) and in experiment [2] (150 g ai/ha alone) was 0% in each case. Moreover, in experiment [3] (150 g ai/ha alone), the “Visual Weed Control (%) - 19 DAA LEFCH Obs” value was 0%.
